Data on 1 compound can be found in article PMC3365106, “Expression of Transient Receptor Potential Ankyrin 1 (TRPA1) and Its Role in Insulin Release from Rat Pancreatic Beta Cells” (PLoS ONE, 2012).

The experiment deals with transient receptor potential ankyrin 1 (TRPA1) (Rattus norvegicus, UniProt Q6RI86). Kind of experiment: whole-cell patch clamp in primary rat beta cells (MG in pipette); also currents in TRPA1-transfected HEK293T cells and siRNA-sensitive Ca2+ influx. The class given is cell-based.
Sequence of transient receptor potential ankyrin 1 (TRPA1) (Q6RI86 whole entry): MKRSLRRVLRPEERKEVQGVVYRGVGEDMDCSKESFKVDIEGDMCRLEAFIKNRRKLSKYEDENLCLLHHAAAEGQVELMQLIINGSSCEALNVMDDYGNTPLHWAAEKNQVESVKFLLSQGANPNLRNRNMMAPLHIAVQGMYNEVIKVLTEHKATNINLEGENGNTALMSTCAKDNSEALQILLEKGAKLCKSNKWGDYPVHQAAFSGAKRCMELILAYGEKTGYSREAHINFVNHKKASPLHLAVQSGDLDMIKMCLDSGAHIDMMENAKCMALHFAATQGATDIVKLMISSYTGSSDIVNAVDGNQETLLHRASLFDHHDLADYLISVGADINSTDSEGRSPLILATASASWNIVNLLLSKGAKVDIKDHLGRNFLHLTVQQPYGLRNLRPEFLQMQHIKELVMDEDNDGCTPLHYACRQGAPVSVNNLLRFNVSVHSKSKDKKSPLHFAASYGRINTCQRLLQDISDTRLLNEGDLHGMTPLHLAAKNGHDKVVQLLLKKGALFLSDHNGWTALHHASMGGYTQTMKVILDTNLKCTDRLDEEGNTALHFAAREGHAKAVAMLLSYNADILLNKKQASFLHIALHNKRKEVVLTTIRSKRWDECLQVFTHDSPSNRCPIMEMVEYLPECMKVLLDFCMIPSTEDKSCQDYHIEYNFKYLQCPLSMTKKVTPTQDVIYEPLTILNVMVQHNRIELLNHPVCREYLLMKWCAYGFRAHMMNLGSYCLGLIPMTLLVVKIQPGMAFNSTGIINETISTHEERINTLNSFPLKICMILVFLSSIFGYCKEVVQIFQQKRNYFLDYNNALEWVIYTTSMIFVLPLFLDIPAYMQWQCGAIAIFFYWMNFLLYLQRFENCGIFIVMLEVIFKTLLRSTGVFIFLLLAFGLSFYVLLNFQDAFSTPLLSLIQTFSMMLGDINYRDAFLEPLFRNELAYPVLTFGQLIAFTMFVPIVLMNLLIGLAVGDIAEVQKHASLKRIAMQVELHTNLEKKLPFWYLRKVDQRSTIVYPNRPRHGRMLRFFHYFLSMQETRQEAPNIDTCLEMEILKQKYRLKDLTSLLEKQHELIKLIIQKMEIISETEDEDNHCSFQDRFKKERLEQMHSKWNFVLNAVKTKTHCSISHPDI

Compound `CC(=O)C=O` [MG, methylglyoxal] registered an EC50 of 590 nM.

What is called EC50 is the concentration that produces a half-maximal response. Read a low EC50 as an effect from little substance.
